Results as given in article PMC2424174, “Suppression of Tumor Growth and Angiogenesis by a Specific Antagonist of the Cell-Surface Expressed Nucleolin” (PLoS ONE, 2008).

How the values were obtained:
[1] = test system: HUVECs; assay: Proliferation of VEGF stimulated HUVECs; format: cell-based, human; conditions: 0.25 nM VEGF165; 1 µM HB-19 or 0.1 µM mAb MS-3; 72 h; mean of triplicate
Method: (§1) Figure 6 Inhibition of in vitro and in vivo angiogenesis by HB-19. (A) HB-19 inhibits proliferation of HUVECs. Twenty-four hours after seeding HUVECs in 2% FBS, cells were stimulated by 0.25 nM VEGF165, in the absence or presence of 1 µM HB-19 or 0.1 µM anti-nucleolin mAb MS-3 as indicated. After 72 h, cell number was determined by crystal violet staining. The data are reported as the mean of triplicate samples. (B) HB-19 inhibits migration of HUVECs. Cell migration was studied using a modified Boyden chamber. Cells were incubated (4 h at 37°C) with VEGF165, HB-19, or anti-nucleolin mAb MS-3 as above. Cells that migrated through the pore to the lower filter surface were counted and are shown as number per microscopic field at ×100 magnification. The data are the mean of three independent high-power fields/well performed in duplicate in two independent experiments. […] Aortic endothelial (ABAE) cells in the absence or presence of 3 nM PTN, 0.5 nM VEGF165, and 3 nM FGF-2 were seeded on a three-dimensional collagen gel in complete medium. […] Tubular network structures were quantified using phase contrast microscopy (×100). […] Quantification of endothelial cell invasion into the Matrigel was determined and is expressed as a mean of five fields per section from 3 Matrigel-plug sections per mouse. The results are expressed as the mean of five mice per group. […]

[2] = test system: Swiss mice; assay: Mouse Matrigel plug angiogenesis assay; format: in vivo; conditions: endothelial-cell infiltration, n = 5 mice
Method: as §1

[3] = test system: CD31 endothelial marker in tumors; assay: Tumor vascularization, CD31 immunohistochemistry; format: in vivo, mouse; conditions: CD31 staining; HB-19 5 mg/kg or 5-FU 40 mg/kg, intraperitoneal, 8 weeks; compared to untreated tumors
Method: Figure 9 Reduced density of blood vessels in HB-19 treated tumor-bearing mice. Sections of tumors recovered from mice, untreated control and treated with either HB-19 or 5-FU (experiment described in Figure 8B) were stained with antibodies against the CD31 endothelial marker and analyzed by fluorescence microscopy. […] Angiogenesis was quantified by image analysis of CD31-labeled endothelial cells.
Immediately after surgical resection, tumors, were frozen in liquid nitrogen and fixed for 20 min in acetone at 4°C or fixed with 4% PFA for paraffin inclusion. The sections of 8 µm were re-hydrated and saturated in PBS containing 1% BSA and 2% normal goat serum. To visualize tumor endothelial cells, sections were incubated with a Rat anti-mouse CD31 monoclonal antibody (1∶50) in saturation buffer 1 hour at room temperature. After two washes in PBS, sections were incubated for 1 hour at room temperature with biotinylated goat anti-Rat IgG (1∶1000 dilution; Chemicon International Inc., Temecula, CA) in saturation buffer, followed by three washes in PBS and incubation with the avidin-biotinylated-alkaline phosphatase complex (Vector Laboratories). […] Angiogenesis was quantified by Image analysis of CD31-labeled endothelial cells. The EC density in each field was expressed as the ratio of EC area/total area examined ×100 (%). […]

[4] = test system: B16 cells; assay: Colony formation in soft agar, B16; format: cell-based, mouse; conditions: 5 µM HB-19, B16
Method: Figure 4 HB-19 inhibits colony formation in soft agar by tumor cell lines. (A) MDA-MB-231 cells in culture medium were seeded in triplicate in the absence (histogram C) or presence of 0.1, 0.5 and 1 of µM HB-19, or 0.1 µM of the anti-nucleolin mAb MS-3 or control IgG, or 10 µM bisphosphonate (BisP). (B) Various tumor cell lines (as indicated) in culture medium were seeded in triplicate in the absence (histogram Control) or presence of 5 µM HB-19. After 10–21 days, colonies with diameters greater than 50 µm were scored as positive. Statistical significance: *0.01<p<[…], **p<0.01, ***p<0.001.
Carcinoma cells (2×10^4) were mixed in 0.35% top agar, diluted in complete medium (DMEM containing 10% FBS) in the absence or presence of HB-19, and plated onto 0.8% bottom agar into 12-well plates. Cells were treated twice a week during 10 to 21 days. Colonies with diameters greater than 50 µm were scored as positive using a phase contrast microscope equipped with a measuring grid at magnification 100× [45]. The number of colonies was determined by analyzing 5 fields/well from 3 wells and the test was repeated at least twice.

For “pseudo-tripeptide Lysψ(CH2N)-Pro-Arg coupled to a template (H2NLys-Lys-Lys-Gly-Pro-Lys-Glu-Lys-AhxCONH2) [HB-19, pseudopeptide presenting pentavalently the pseudo-tripeptide Lysψ(CH2N)-Pro-Arg coupled to a template]”, the “inhibition of HUVEC proliferation” value [1] was “inhibited dramatically both of these events down to levels comparable to that of unstimulated cells”, the “inhibition of PTN induced angiogenesis” value ([2]; 1 µM HB-19, 5 nM PTN) was “significantly inhibited the ex vivo angiogenesis” and the “inhibition of FGF-2 induced angiogenesis” value ([2]; 1 µM HB-19, 10 nM FGF-2) was “significantly inhibited the ex vivo angiogenesis”. For the same substance, the “inhibition of tumor vascularization” value [3] was “significantly inhibited tumor vascularization” and the colony formation [4] was “reduced markedly”.
